# Tested on: rat normal hepatocytes
# Test: Intracellular signaling pathway analysis using kinase inhibitors (DNA synthesis activity, BrdU ELISA)
# Type: cell-based
# Settings: PARI-S001 (pyroglutamic acid 10 mM) plus inhibitor; PD98059, SB203580, LY294002 6.3-50 μM, rapamycin 1.6-12.5 ng/mL; 0.5% DMSO; 22 hours
# Description: The intracellular signaling pathway analysis was carried out in order to clarify through which intracellular signaling pathway the PARI-S001 promoted cell proliferation activity. PARI-S001 and various kinase inhibitors were used to measure the cell proliferation activity. The measurement method used was the same method as that in the above-described <Normal Cell Proliferation Test>. The rat normal hepatocytes were cultured for 3 hours after seeding, followed by replacement with the medium to which […] (pyroglutamic acid concentration: 10 mM) and each kinase inhibitor were simultaneously added. The concentration of rapamycin (an inhibitor of mTOR) was adjusted to a final concentration of 1.6 ng/mL, 3.1 ng/mL, 6.3 ng/mL, or 12.5 ng/mL. The concentration of PD98059 (an inhibitor of MEK1 and MEK2), SB203580 (an inhibitor of p38 of MAPK), and LY294002 (an inhibitor of PI3K) was adjusted to a final concentration of 6.3 μM, 12.5 μM, 25 μM, or 50 μM. To promote the dissolution of each kinase inhibitor, dimethyl sulfoxide (hereinafter abbreviated as “DMSO”) was added to a final concentration of 0.5% to the medium. Similarly, DMSO was added to a final concentration of 0.5% to the control. Culture was further carried out for 22 hours after medium replacement, followed by evaluating DNA synthesis activity using a Cell Proliferation ELISA BrdU (colorimetric) Kit (Roche Co., Ltd.).
smiles,measurement,value
COc1cccc(-c2cc(=O)c3ccccc3o2)c1N [PD98059],DNA synthesis activity in rat normal hepatocytes on simultaneous addition of PARI-S001 and kinase inhibitor,suppress DNA synthesis activity in the rat normal hepatocytes depending on the concentration of the inhibitor
